ChEMBL document CHEMBL1151643, “The Identification of a Major Phytotoxic Component from Alternaria macrospora as -Dehydrocurvularin” (J Nat Prod, 1985)
≈ marks a conversion by molar mass, not a printed value.

How the values were obtained:
Assay type in all cases: organism-based
[1] = test system: Gossypium hirsutum; experiment: Phytotoxicity against Gossypium hirsutum assessed as appearance of lesions at 10 ug applied to adaxial surface of leaf for 12 hrs measured after 16 hrs; details: in vivo, topical_or_ocular
[2] = Phytotoxicity against Cucumis sativus protoplast after 3 hrs by fluorescein diacetate staining; details: Cucumis sativus protoplasts, read-out: LD50
[3] = test system: Gossypium hirsutum; experiment: Phytotoxicity against Gossypium hirsutum assessed as appearance of lesions at 0.5 ug applied to adaxial surface of leaf for 12 hrs measured after 4 days; details: in vivo, topical_or_ocular

| Compound | Activity [1] | CC50 at 3 h [2] [mg/L] | Activity [3] |
| --- | --- | --- | --- |
| CC1CCC/C=C/C(=O)c2c(O)cc(O)cc2CC(=O)O1 (centres undefined) | Toxic | 15 (≈ 51.7 µM) | Toxic |
| CC1CCCCCC(=O)c2c(O)cc(O)cc2CC(=O)O1 (centres undefined) [CURVULARIN] | – | 21 (≈ 71.8 µM) | – |
